The test system of test [1] is T47D breast cancer multicellular tumor spheroids. Briefly: In vitro screen in T47D breast cancer multicellular tumor spheroids, BET inhibitor plus palbociclib. The test is classed as cell-based. The settings on record: for Synergy score: BET inhibitor (30, 300, 3000 nM) in combination with 25 nM palbociclib, from AUC of spheroid growth curves (Chalice Analyzer); for Growth inhibition of T47D spheroids, as average diameter (mm): combination with palbociclib (25 nM) versus single agents. The method, then: T47D multicellular tumor spheroids were grown in a low-adhesion 96-well plate for use in screening. […] Two hundred T47D cells were seeded per well of 96-well ultralow attachment plates (ULA-96U, Thermo Fisher). Cells were grown for 4 days to allow spheroid formation, followed by initiation of compound treatment as indicated (day 0). […] The medium was replaced every 3 days. Spheroid average diameter was quantified every 3 days (Celigo 200-BFFL-S, Nexcelcom) and spheroid growth curves were obtained. The area-under-curve (AUC) was quantified and used to calculate synergy scores for BET inhibitors in combination with palbociclib (Chalice Analyzer, Horizon Discovery).

The next test concerns the target BRD4 (Homo sapiens, UniProt O60885). The settings on record: method not given; listed beside Literature Ref.; cited from earlier work.
Test [2] has as its system Hs766T pancreatic cancer spheroids. Briefly: In vitro screen in Hs766T PDAC multicellular tumor spheroids, BET inhibitor plus palbociclib. The test is classed as cell-based. The settings on record: combination with palbociclib (50 nM) versus single agents. On the procedure: Hs766T multicellular tumor spheroids were grown in a low-adhesion 96-well plate for use in screening. Hs766T cells were cultured in DMEM medium supplemented with 10% fetal bovine serum (GIBCO™). 2% Matrigel (Cultrex, cat#3432-005-1) was added to the medium, and 400 cells/well were subsequently seeded per well of 96-well ultralow attachment plates (ULA-96U, Thermo Fisher). Cells were grown for 4 days to allow spheroid formation, followed by initiation of compound treatment as indicated (day 0). Cells were treated either with vehicle (DMSO), or with 3 nM, 10 nM or 30 nM of test compound B7, or 30 nM, 300 nM or 3000 nM of test compound B8. […] The medium was replaced every 3 days. Spheroid average diameter was quantified every 3 days (Celigo 200-BFFL-S, Nexcelcom). Spheroid growth curves, generated as described in Example 2, are shown in FIGS. 12A-12C (B7); and FIGS. 13A-13C (B8).

Test [3] relates to MCF-7 breast cancer xenograft. In words: In vivo study in MCF-7 breast cancer xenograft. On the set-up: species or system NOD scid gamma (NSG) mice. The settings on record: palbociclib 50 mpk plus ABBV-075 2 mpk once daily days 0-20, recovery until day 47. On the procedure:
NOD scid gamma (NSG) mice (6-7 weeks old, Jax laboratory, Sacramento CA) were subcutaneously injected with 5×10^6 MCF-7 cells (ATCC) with 50% matrigel. When MCF-7 xenografts reached a volume of -150 mm^3, the tumor bearing mice were randomly assigned to four treatment groups, with each n=10 (vehicle, palbociclib (50 mpk), mivebresib (2 mpk), combination treatment with palbociclib (50 mpk) plus mivebresib (2 mpk)). Treatment was initiated after the randomization as indicated. Mice were treated once daily from days 0-20 and then tumors were allowed to recover until day 47. Mean tumor volumes (mm^3) are averages of MCF-7 xenografts (n=10).

We go through ten compounds from patent publication US20200405809A1, “COMBINATION OF A CYCLIN DEPENDENT KINASE INHIBITOR AND A BET- BROMODOMAIN INHIBITOR” (Pfizer Inc., priority 2018, published 2020).

As for PFI-1 [B5], in test [1], the Synergy score worked out at 0.76 and the “Growth inhibition of T47D spheroids, as average diameter (mm)” value (from here on “Growth inhibition of T47D spheroids”) was “enhanced growth inhibition”. At BRD4, the IC50 is 136 nM.

Take `CCNC(=O)C[C@@H]1N=C(c2ccc(Cl)cc2)c2cc(OC)ccc2-n2c(C)nnc21` [B3, IBET-762 (GSK525762)]: the “Growth inhibition of T47D spheroids” value in test [1] is “enhanced growth inhibition”.

Take `CCS(=O)(=O)Nc1ccc(Oc2ccc(F)cc2F)c(-c2cn(C)c(=O)c3[nH]ccc23)c1` [B7, ABBV-075 (mivebresib)]: the “Growth inhibition of T47D spheroids” value in test [1] is “enhanced growth inhibition”. Moreover, the “Growth inhibition of Hs766T spheroids, as average diameter (mm)” value in test [2] was “enhanced growth inhibition”. Besides, in test [3], the “Tumor growth delay and tumor growth inhibition (mean tumor volume)” value was “enhanced tumor growth delay and tumor growth inhibition”. Further, the 50% inhibitory concentration (IC50) at BRD4 is 1.5 nM.

For `Cc1cc2cc(NS(=O)(=O)c3ccccc3F)ccc2[nH]c1=O` [B4, PFI-2], in test [1], the Synergy score stood at 0.79 and the “Growth inhibition of T47D spheroids” value is “enhanced growth inhibition”. The IC50 on BRD4 was 96 nM.

With `Cc1sc2c(c1C)C(c1ccc(Cl)cc1)=N[C@@H](CC(=O)OC(C)(C)C)c1nnc(C)n1-2` [B2, JQ1], in test [1], the Synergy score is listed as 1.08 and the “Growth inhibition of T47D spheroids” value is reported as “enhanced growth inhibition”.

In the case of `COc1cc2c(cc1-c1c(C)noc1C)ncc1[nH]c(=O)n([C@H](C)c3ccccn3)c12` [B1, IBET-151 (GSK1210151)], in test [1], the Synergy score worked out at 1.09 and the “Growth inhibition of T47D spheroids” value was “enhanced growth inhibition”.

Take `COc1nnc2ccc(N3CCC(c4ccc(OCCN5CCN(C)C(=O)[C@H]5C)cc4)CC3)nn12` [B8, AZD5153]: the “Growth inhibition of T47D spheroids” value in test [1] was “enhanced growth inhibition”. Besides, in test [2], the “Growth inhibition of Hs766T spheroids, as average diameter (mm)” value is “enhanced growth inhibition”.

On to `Cc1sc2c(c1C)C(c1ccc(Cl)cc1)=N[C@@H](CC(=O)Nc1ccc(O)cc1)c1nnc(C)n1-2` [B10, MK-8628 (OTX015)], for which the “Growth inhibition of T47D spheroids” value in test [1] is given as “enhanced growth inhibition”.

For the compound `COc1cc(OC)c2c(=O)[nH]c(-c3cc(C)c(OCCO)c(C)c3)nc2c1` [B6, RVX-208 (RVX000222 or apabetalone)], in test [1], the Synergy score is 0.33 and the “Growth inhibition of T47D spheroids” value is given as “enhanced growth inhibition”.

As to `Cc1noc2c1-c1ccccc1C(c1ccc(Cl)cc1)=N[C@H]2CC(N)=O` [B9, CPI-0610], the “Growth inhibition of T47D spheroids” value in test [1] is on record as “enhanced growth inhibition”.

Broadly, the IC50 is the concentration at which inhibition is half-maximal.
